Measurements taken from US6914045B2, “Glycopeptide antibiotics” (Wyeth Holdings Corporation, priority 2001, dated 2005).
Converted amounts (≈) assume the structure as drawn.

How the values were obtained:
Test in all cases: in vitro antibacterial evaluation, MIC by broth dilution
Assay type in all cases: cell-based
Enterococcus sp. = conditions: broth dilution, 18 hours at 35° C.; for MIC Enterococcus faecalis (ATCC 29212): strain ATCC 29212; for MIC Enterococcus faecalis (GC 2242): strain GC 2242; for MIC Enterococcus faecium (GC 2243): strain GC 2243; for MIC Enterococcus faecalis (GC 2691): strain GC 2691; for MIC Enterococcus faecalis (GC 3059): strain GC 3059; for MIC Enterococcus faecalis (GC 4552): strain GC 4552; for MIC Enterococcus faecalis (GC 4553): strain GC 4553; for MIC Enterococcus faecalis (GC 4554): strain GC 4554; for MIC Enterococcus faecium (GC 4556): strain GC 4556; for MIC Enterococcus faecium (GC 4557): strain GC 4557; for MIC Enterococcus avium (GC 4558): strain GC 4558; for MIC Enterococcus faecalis (GC 6189): strain GC 6189
Procedure, shortened: (§1)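 Read-out: the lowest concentration at which the test strain fails to grow. Serial dilutions (64-0.06 μg/mL) in Muller-Hinton II […], 5×10^5 CFU/mL inoculum, NCCLS M7-A2 procedure.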

Escherichia coli = test system: Escherichia coli
Procedure, shortened: as §1

Staphylococcus sp. = conditions: broth dilution, 18 hours at 35° C.; for MIC Staphylococcus aureus (GC 1131): strain GC 1131
Procedure, shortened: as §1

Streptococcus sp. = conditions: broth dilution, 18 hours at 35° C.; for MIC Streptococcus pneumoniae (ATCC 6301): strain ATCC 6301; for MIC Streptococcus pneumoniae (GC 1894): strain GC 1894; for MIC Streptococcus pyogenes (GC 4563): strain GC 4563; for MIC Streptococcus agalactiae (GC 4564): strain GC 4564; for MIC Streptococcus pneumoniae (GC 4565): strain GC 4565
Procedure, shortened: as §1

MIC Enterococcus faecalis (ATCC 29212) (Enterococcus sp.; inoculum 5×10^5 CFU/mL): 16 µg/mL (≈ 10.9 µM)
MIC Enterococcus faecalis (GC 2242) (Enterococcus sp.; inoculum 5×10^5 CFU/mL): 16 µg/mL (≈ 10.9 µM)
MIC Enterococcus faecium (GC 2243) (Enterococcus sp.; inoculum 5×10^5 CFU/mL): 16 µg/mL (≈ 10.9 µM)
MIC Enterococcus faecalis (GC 2691) (Enterococcus sp.; inoculum 5×10^5 CFU/mL): 16 µg/mL (≈ 10.9 µM)
MIC Enterococcus faecalis (GC 3059) (Enterococcus sp.; inoculum 5×10^5 CFU/mL): 16 µg/mL (≈ 10.9 µM)
MIC Enterococcus faecalis (GC 4552) (Enterococcus sp.; inoculum 5×10^5 CFU/mL): 16 µg/mL (≈ 10.9 µM)
MIC Enterococcus faecalis (GC 4553) (Enterococcus sp.; inoculum 5×10^5 CFU/mL): 16 µg/mL (≈ 10.9 µM)
MIC Enterococcus faecalis (GC 4554) (Enterococcus sp.; inoculum 5×10^5 CFU/mL): 32 µg/mL (≈ 21.8 µM)
MIC Enterococcus faecium (GC 4556) (Enterococcus sp.; inoculum 5×10^5 CFU/mL): 16 µg/mL (≈ 10.9 µM)
MIC Enterococcus faecium (GC 4557) (Enterococcus sp.; inoculum 5×10^5 CFU/mL): 16 µg/mL (≈ 10.9 µM)
MIC Enterococcus avium (GC 4558) (Enterococcus sp.; inoculum 5×10^5 CFU/mL): 16 µg/mL (≈ 10.9 µM)
MIC Enterococcus faecalis (GC 6189) (Enterococcus sp.; inoculum 5×10^5 CFU/mL): 16 µg/mL (≈ 10.9 µM)
MIC Enterococcus faecalis (ATCC 29212) (Enterococcus sp.): 16 µg/mL (≈ 10.9 µM)
MIC Enterococcus faecalis (GC 2242) (Enterococcus sp.): 16 µg/mL (≈ 10.9 µM)
MIC Enterococcus faecium (GC 2243) (Enterococcus sp.): 16 µg/mL (≈ 10.9 µM)
MIC Enterococcus faecalis (GC 2691) (Enterococcus sp.): 16 µg/mL (≈ 10.9 µM)
MIC Enterococcus faecalis (GC 3059) (Enterococcus sp.): 16 µg/mL (≈ 10.9 µM)
MIC Enterococcus faecalis (GC 4552) (Enterococcus sp.): 16 µg/mL (≈ 10.9 µM)
MIC Enterococcus faecalis (GC 4553) (Enterococcus sp.): 16 µg/mL (≈ 10.9 µM)
MIC Enterococcus faecalis (GC 4554) (Enterococcus sp.): 32 µg/mL (≈ 21.8 µM)
MIC Enterococcus faecium (GC 4556) (Enterococcus sp.): 16 µg/mL (≈ 10.9 µM)
MIC Enterococcus faecium (GC 4557) (Enterococcus sp.): 16 µg/mL (≈ 10.9 µM)
MIC Enterococcus avium (GC 4558) (Enterococcus sp.): 16 µg/mL (≈ 10.9 µM)
MIC Enterococcus faecalis (GC 6189) (Enterococcus sp.): 16 µg/mL (≈ 10.9 µM)
MIC Escherichia coli (ATCC 25922) (Escherichia coli; strain ATCC 25922, 18 hours at 35° C.): >64 µg/mL
MIC Escherichia coli (GC 4559) (Escherichia coli; strain GC 4559, 18 hours at 35° C.): >64 µg/mL
MIC Escherichia coli (GC 4560) (Escherichia coli; strain GC 4560, 18 hours at 35° C.): 16 µg/mL (≈ 10.9 µM)
MIC Staphylococcus aureus (GC 1131) (Staphylococcus sp.; inoculum 5×10^5 CFU/mL): 16 µg/mL (≈ 10.9 µM)
MIC Staphylococcus aureus (ATCC 29213) (Staphylococcus sp.; strain ATCC 29213): 16 µg/mL (≈ 10.9 µM)
MIC Staphylococcus aureus (GC 1131) (Staphylococcus sp.): 16 µg/mL (≈ 10.9 µM)
MIC Staphylococcus aureus (GC 3051) (Staphylococcus sp.; strain GC 3051): 32 µg/mL (≈ 21.8 µM)
MIC Staphylococcus aureus (GC 3053) (Staphylococcus sp.; strain GC 3053): 16 µg/mL (≈ 10.9 µM)
MIC Staphylococcus aureus (GC 4541) (Staphylococcus sp.; strain GC 4541): 16 µg/mL (≈ 10.9 µM)
MIC Staphylococcus aureus (GC 4542) (Staphylococcus sp.; strain GC 4542): 16 µg/mL (≈ 10.9 µM)
MIC Staphylococcus aureus-SMITH (GC 4543) (Staphylococcus sp.; strain GC 4543): 16 µg/mL (≈ 10.9 µM)
MIC Staphylococcus aureus (GC 4544) (Staphylococcus sp.; strain GC 4544): 16 µg/mL (≈ 10.9 µM)
MIC Staphylococcus aureus (GC 4545) (Staphylococcus sp.; strain GC 4545): 16 µg/mL (≈ 10.9 µM)
MIC Coagulase Negative Staphylococcus (GC 4547) (Staphylococcus sp.; strain GC 4547): 16 µg/mL (≈ 10.9 µM)
MIC Coagulase Negative Staphylococcus (GC 4548) (Staphylococcus sp.; strain GC 4548): 8 µg/mL (≈ 5.45 µM)
MIC Coagulase Negative Staphylococcus (GC 4549) (Staphylococcus sp.; strain GC 4549): 8 µg/mL (≈ 5.45 µM)
MIC Coagulase Negative Staphylococcus (GC 4551) (Staphylococcus sp.; strain GC 4551): 16 µg/mL (≈ 10.9 µM)
MIC Coagulase Negative Staphylococcus (GC 6257) (Staphylococcus sp.; strain GC 6257): 8 µg/mL (≈ 5.45 µM)
MIC Staphylococcus aureus-SMITH (GC 4543) (Staphylococcus sp.; strain SMITH GC 4543): 16 µg/mL (≈ 10.9 µM)
MIC Streptococcus pneumoniae (ATCC 6301) (Streptococcus sp.; inoculum 5×10^5 CFU/mL): 0.12 µg/mL (≈ 0.0818 µM)
MIC Streptococcus pneumoniae (GC 1894) (Streptococcus sp.; inoculum 5×10^5 CFU/mL): <0.06 µg/mL
MIC Streptococcus pyogenes (GC 4563) (Streptococcus sp.; inoculum 5×10^5 CFU/mL): 0.12 µg/mL (≈ 0.0818 µM)
MIC Streptococcus agalactiae (GC 4564) (Streptococcus sp.; inoculum 5×10^5 CFU/mL): 1 µg/mL (≈ 0.681 µM)
MIC Streptococcus pneumoniae (GC 4565) (Streptococcus sp.; inoculum 5×10^5 CFU/mL): 0.12 µg/mL (≈ 0.0818 µM)
MIC Streptococcus pneumoniae (ATCC 6301) (Streptococcus sp.): 0.12 µg/mL (≈ 0.0818 µM)
MIC Streptococcus pneumoniae (GC 1894) (Streptococcus sp.): <0.06 µg/mL
MIC Streptococcus pyogenes (GC 4563) (Streptococcus sp.): 0.12 µg/mL (≈ 0.0818 µM)
MIC Streptococcus agalactiae (GC 4564) (Streptococcus sp.): 1 µg/mL (≈ 0.681 µM)
MIC Streptococcus pneumoniae (GC 4565) (Streptococcus sp.): 0.12 µg/mL (≈ 0.0818 µM)
Compound: CC(C)=CCOc1cccc(C2OCC3OC(OC4C(CO)OC(Oc5ccc(CC6NC(=O)C(C(C)c7ccccc7)NC(=O)CNC(=O)C(CO)NC(=O)C(C(O)C7CNC(=N)N7C7OC(CO)C(O)C(O)C7O)NC(=O)C(C(O)C7CNC(=N)N7)NC6=O)cc5)C(O)C4O)C(O)C(O)C3O2)c1 (stereo not drawn) [Example 165]
MIC Staphylococcus haemolyticus (GC 4546) (Staphylococcus sp.; strain GC 4546): 16 µg/mL (≈ 10.9 µM)
